Laboratory results taken from US9551711B2, “Compositions and methods for detecting nitration of PKG-1α and methods of use thereof” (Augusta University Research Institute, Inc., priority 2013, dated 2017).

Target: T1, PKG-1α (Homo sapiens, UniProt Q13976)
T1 sequence (Q13976 2-671): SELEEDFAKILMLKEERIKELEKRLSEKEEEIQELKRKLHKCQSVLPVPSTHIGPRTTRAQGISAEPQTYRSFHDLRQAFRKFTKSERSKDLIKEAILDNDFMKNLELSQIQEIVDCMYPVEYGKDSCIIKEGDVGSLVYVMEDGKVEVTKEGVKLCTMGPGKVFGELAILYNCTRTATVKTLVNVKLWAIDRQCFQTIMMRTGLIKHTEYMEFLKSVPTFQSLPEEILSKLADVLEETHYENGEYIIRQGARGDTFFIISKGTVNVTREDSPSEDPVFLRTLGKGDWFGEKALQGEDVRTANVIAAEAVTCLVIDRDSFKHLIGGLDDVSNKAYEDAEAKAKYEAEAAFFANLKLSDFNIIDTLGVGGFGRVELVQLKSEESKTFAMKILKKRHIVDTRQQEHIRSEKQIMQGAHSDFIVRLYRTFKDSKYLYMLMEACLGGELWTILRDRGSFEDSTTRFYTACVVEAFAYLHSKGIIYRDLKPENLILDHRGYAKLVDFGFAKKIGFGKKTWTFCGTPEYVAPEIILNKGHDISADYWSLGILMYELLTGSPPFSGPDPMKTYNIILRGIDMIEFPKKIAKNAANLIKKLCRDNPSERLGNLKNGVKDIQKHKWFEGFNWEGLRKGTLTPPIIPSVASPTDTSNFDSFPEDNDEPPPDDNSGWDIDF
Test: [3H]cGMP binding assay on immunopurified PKG-1α
Parameters: an expression plasmid containing a full length WT-PKG-1α cDNA; made in house; host or cells: HEK-293T; the results paragraph b304 says PASMC
Settings: WT-PKG-1α; SIN-1 treatment
Method: HEK-293T cells were transiently transfected with either the WT-PKG-1α or the Y247FPKG-1α cDNA using Effectene transfection reagent (Qiagen), according to the manufacturer's instructions. Briefly, the cells were split the day before the transfection to low cell densities (25%) and were transfected 24 h later. After 48 h of transfection, the cells were incubated in DMEM serum free media containing 1% FBS and antibiotics for 4 h and then treated with or without SIN-1 (500 μM), for 30 min. This method produced an approximate 70% transfection efficiency of HEK-293T cells, as measured using green fluorescent protein vectors. […]
The batches of supernatant were pooled, and 2 μg of anti-PKG-1α antibody per mg of protein were added to the extract and rocked at 4° C. […] After 15 min of agitation at 4° C., the beads were pelleted by centrifugation, and the supernatant containing the PKG-1α protein was collected, quantified using Bradford reagent, and stored at −80° C.
To assay the binding of cGMP to WT- and Y247F-PKG-1α the enzymes were saturated with cGMP by incubating 50 μl aliquots of the diluted PKG constructs for 60 min at room temperature with 50 μl of [^3H]cGMP and 150 μl of cGMP-binding assay mixture (25 mM K2HPO4, 25 mM KH2PO4, 1 mM EDTA, pH 6.8, 2M NaCl, 200 μM 3-isobutyl-1-methylxanthine). […] The dissociation constant (Kd) values were determined using GraphPad Prism graphics. […]

- maximal [3H]cGMP binding: significantly attenuated
Substance: 3-morpholinosydnonimine N-ethylcarbamide [SIN-1]
